For the test, the target named is T1, PN3 (Homo sapiens, UniProt Q9Y5Y9).
T1 construct: expressed in transfected cells
T1 sequence (Q9Y5Y9 whole entry, species assumed): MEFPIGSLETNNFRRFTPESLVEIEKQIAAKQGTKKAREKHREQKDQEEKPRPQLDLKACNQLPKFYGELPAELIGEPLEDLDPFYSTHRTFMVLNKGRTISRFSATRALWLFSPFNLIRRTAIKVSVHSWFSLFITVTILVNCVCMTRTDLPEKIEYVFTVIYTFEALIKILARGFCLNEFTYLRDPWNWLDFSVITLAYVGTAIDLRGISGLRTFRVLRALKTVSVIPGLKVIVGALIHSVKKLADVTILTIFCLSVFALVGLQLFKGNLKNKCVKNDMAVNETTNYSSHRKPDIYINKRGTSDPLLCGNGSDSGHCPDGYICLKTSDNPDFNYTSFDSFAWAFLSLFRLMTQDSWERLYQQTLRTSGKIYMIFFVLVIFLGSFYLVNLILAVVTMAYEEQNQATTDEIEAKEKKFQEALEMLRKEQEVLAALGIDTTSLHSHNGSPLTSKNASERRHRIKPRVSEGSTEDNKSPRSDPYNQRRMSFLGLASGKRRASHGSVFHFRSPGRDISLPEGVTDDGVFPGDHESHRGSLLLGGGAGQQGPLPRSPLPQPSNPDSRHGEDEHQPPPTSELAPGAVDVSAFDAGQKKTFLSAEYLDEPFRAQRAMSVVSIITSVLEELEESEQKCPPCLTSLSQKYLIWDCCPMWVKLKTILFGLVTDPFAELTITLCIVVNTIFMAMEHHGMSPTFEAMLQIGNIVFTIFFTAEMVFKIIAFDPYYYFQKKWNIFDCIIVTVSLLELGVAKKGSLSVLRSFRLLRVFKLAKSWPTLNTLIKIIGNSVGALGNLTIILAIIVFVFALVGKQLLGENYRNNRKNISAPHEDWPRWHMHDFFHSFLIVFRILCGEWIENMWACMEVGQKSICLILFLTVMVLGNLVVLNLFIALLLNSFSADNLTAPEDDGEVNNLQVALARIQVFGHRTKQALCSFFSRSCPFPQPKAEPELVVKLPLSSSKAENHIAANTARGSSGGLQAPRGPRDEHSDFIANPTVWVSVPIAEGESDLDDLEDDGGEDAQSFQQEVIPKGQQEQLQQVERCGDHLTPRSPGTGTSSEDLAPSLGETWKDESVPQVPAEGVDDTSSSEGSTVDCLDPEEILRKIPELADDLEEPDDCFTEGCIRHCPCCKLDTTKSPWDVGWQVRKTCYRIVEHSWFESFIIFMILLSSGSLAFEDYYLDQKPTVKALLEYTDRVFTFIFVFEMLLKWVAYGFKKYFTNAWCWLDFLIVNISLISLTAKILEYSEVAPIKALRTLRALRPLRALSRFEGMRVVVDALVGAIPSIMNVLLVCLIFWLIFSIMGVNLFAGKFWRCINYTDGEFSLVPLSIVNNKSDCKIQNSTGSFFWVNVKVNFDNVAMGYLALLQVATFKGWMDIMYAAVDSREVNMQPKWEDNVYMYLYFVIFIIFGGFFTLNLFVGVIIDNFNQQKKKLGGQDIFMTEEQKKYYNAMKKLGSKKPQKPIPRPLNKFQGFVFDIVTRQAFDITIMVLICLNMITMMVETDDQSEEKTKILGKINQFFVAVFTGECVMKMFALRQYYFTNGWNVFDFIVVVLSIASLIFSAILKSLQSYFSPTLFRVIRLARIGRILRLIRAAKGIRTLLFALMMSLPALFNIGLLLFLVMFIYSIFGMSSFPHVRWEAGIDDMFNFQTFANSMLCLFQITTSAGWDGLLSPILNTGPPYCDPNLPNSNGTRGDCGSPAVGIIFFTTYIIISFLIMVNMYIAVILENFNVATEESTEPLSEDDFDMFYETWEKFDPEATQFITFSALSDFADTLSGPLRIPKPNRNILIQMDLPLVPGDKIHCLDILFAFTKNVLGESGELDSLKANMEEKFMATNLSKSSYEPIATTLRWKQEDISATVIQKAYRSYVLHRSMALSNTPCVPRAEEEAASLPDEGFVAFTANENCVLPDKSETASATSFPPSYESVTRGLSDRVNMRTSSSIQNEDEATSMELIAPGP
The test can be described thus: 14C Guanidinium Ion Influx Binding Assay (flux assay). It is filed as cell-based. To be noted: activity towards PN3, PN3 stably expressed in a host cell line, deltamethrine 10 μM. The procedure: ^14C Guanidinium Ion Influx Binding Assay
PN3 stably expressed in a host cell line were maintained in DMEM with 5% fetal bovine serum and 300 μg/ml G-418. The cells were subcultured and grown to confluence in 96-well plates 24–48 h before each experiment. After the growth medium was removed, the cells were washed with warm buffer (25 mM Hepes-Tris, 135 mM choline chloride, 5.4 mM potassium chloride, 0.98 mM magnesium sulfate, 5.5 mM glucose, and 1 mg/ml BSA, pH 7.4) and incubated in buffer on a 36° C. slide warmer for approximately 10 minutes. Various concentrations of the test compounds or standard sodium channel blockers (10 μM) and then deltamethrine (10 μM) were added to each well. After the cells were exposed to deltamethrine for 5 minutes, 5 μM of ^14C-guanidinium was added, incubated with the radioligand (30–60 min), washed with ice-cold buffer, and dissolved in 0.1N sodium hydroxide. The radioactivity and the protein concentration of each cell lysate were determined by liquid scintillation counting and the protein assay using Pierce BCA reagent.
Take `CN(C)CCNS(=O)(=O)c1cccc(NC(=O)c2cnn(-c3ccc(Cl)cc3)c2C(F)(F)F)c1` [Compound 1175, 1-(4-Chloro-phenyl)-5-trifluoromethyl-1H-pyrazole-4-carboxylic acid [3-(2-dimethylamino-ethylsulfamoyl)-phenyl]-amide]: the IC50 (usually the concentration needed to halve the response being measured) lay within 4.1 to 10 µM.
Then `CS(=O)(=O)c1cccc(NC(=O)c2cnn(-c3ccc(Cl)cc3)c2C(F)(F)F)c1` [Compound 154, 1-(4-Chloro-phenyl)-5-trifluoromethyl-1H-pyrazole-4-carboxylic acid (3-methanesulfonyl-phenyl)-amide], with 0.1 to 4 µM; and `NS(=O)(=O)c1cccc(NC(=O)c2cnn(-c3ccc(Cl)cc3)c2C(F)(F)F)c1` [Compound 1054, 1-(4-Chloro-phenyl)-5-trifluoromethyl-1H-pyrazole-4-carboxylic acid (3-sulfamoyl-phenyl)-amide], with 0.1 to 4 µM; and `O=C(NCCc1cccc(Cl)c1)c1cnn(-c2ccc(F)cc2)c1C(F)(F)F` [Compound 480, 1-(4-Fluoro-phenyl)-5-trifluoromethyl-1H-pyrazole-4-carboxylic acid [2-(3-chloro-phenyl)-ethyl]-amide], with 0.1 to 4 µM.
The value for `O=C(NCCc1ccccc1Cl)c1cnn(-c2ccc(Cl)cc2)c1C(F)(F)F` [Compound 414, 1-(4-Chloro-phenyl)-5-trifluoromethyl-1H-pyrazole-4-carboxylic acid [2-(2-chloro-phenyl)-ethyl]-amide] was 0.1 to 4 µM; that for `O=C(NCCc1ccccc1)c1cnn(-c2ccc(Cl)cc2)c1C(F)(F)F` [Compound 114, 1-(4-Chloro-phenyl)-5-trifluoromethyl-1H-pyrazole-4-carboxylic acid phenethyl-amide] was 10.1 to 30 µM.
The value for `O=C(NCCc1cccc(F)c1)c1cnn(-c2ccc(Cl)cc2)c1C(F)(F)F` [Compound 323, 1-(4-Chloro-phenyl)-5-trifluoromethyl-1H-pyrazole-4-carboxylic acid [2-(3-fluoro-phenyl)-ethyl]-amide] was 0.1 to 4 µM; that for `CCCc1c(C(=O)NC(Cc2ccccc2)C(=O)OC)cnn1-c1ccccc1` (stereo not shown) [Compound 39, 3-Phenyl-2-[(1-phenyl-5-propyl-1H-pyrazole-4-carbonyl)-amino]-propionic acid methyl ester] was 0.1 to 4 µM; that for `O=C(NCCc1ccc(F)cc1)c1cnn(-c2ccc(Cl)cc2)c1C(F)(F)F` [Compound 411, 1-(4-Chloro-phenyl)-5-trifluoromethyl-1H-pyrazole-4-carboxylic acid [2-(4-fluoro-phenyl)-ethyl]-amide] was 0.1 to 4 µM.
In turn, `O=C(NCCc1cccc(Cl)c1)c1cnn(-c2cccc(Cl)c2)c1` [Compound 449, 1-(3-Chloro-phenyl)-1H-pyrazole-4-carboxylic acid [2-(3-chloro-phenyl)-ethyl]-amide] gave an IC50 of 0.1 to 4 µM.
`Cn1nc(-c2ccccc2)cc1NC(=O)c1cnn(-c2ccc(Cl)cc2)c1C(F)(F)F` [Compound 20, 1-(4-Chloro-phenyl)-5-trifluoromethyl-1H-pyrazole-4-carboxylic acid (2-methyl-5-phenyl-2H-pyrazol-3-yl)-amide] had an IC50 of 0.1 to 4 µM.
The value for `O=C(Nc1ccncc1)c1cnn(-c2ccc(Cl)cc2)c1C(F)(F)F` [Compound 23, 1-(4-Chloro-phenyl)-5-trifluoromethyl-1H-pyrazole-4-carboxylic acid pyridin-4-ylamide] was 4.1 to 10 µM; that for `O=C(NCc1ccc(C(F)(F)F)cc1)c1cnn(-c2ccccc2)c1C(F)(F)F` [Compound 444, 1-Phenyl-5-trifluoromethyl-1H-pyrazole-4-carboxylic acid 4-trifluoromethyl-benzylamide] was 4.1 to 10 µM.

Values taken from patent publication US7223782B2, “Pyrazole-amides and -sulfonamides” (Icagen, Inc., priority 2001, dated 2007).
